We go through eight molecules from US20220361547A1, “TASTE MODIFYING COMPOSITIONS AND USES THEREOF” (Firmenich Incorporated, priority 2019, published 2022).

Where a name gives a salt, the structure may show the parent alone.

A short description of the experiment: Sensory testing: taste testers rate sweetness of aqueous sweetener compositions without and with A1. Format: in vivo, human. Particulars: scale from 1 to 10. How it is done: Compositions of various sweetening agents were prepared without any additive and with the sodium salt of N-(1-((4-amino-2,2-dioxo-1H-benzo[c][1,2,6]thiadiazin-5-yl)oxy)-2-methyl-propan-2-yl)isonicotinamide (A1) added at various concentrations. Taste testers were asked to rate the sweetness of the resulting aqueous compositions for sweetness on a scale from 1 to 10.

On to `OC[C@H]1O[C@H](O[C@]2(CCl)O[C@H](CCl)[C@@H](O)[C@@H]2O)[C@H](O)[C@@H](O)[C@H]1Cl` [Sucralose, reference compound], for which the sweetness rating (aqueous Sucralose (80 ppm), No A1) is given as 3.3.

Where the note is “aqueous D-(+)-Glucose (7%), No A1”, `O=C[C@H](O)[C@@H](O)[C@H](O)[C@H](O)CO` [D-(+)-Glucose, reference compound] had a sweetness rating of 3.8.

For the molecule `O=C(CO)[C@@H](O)[C@H](O)[C@H](O)CO` [Fructose, reference compound], the sweetness rating (aqueous Fructose (7%), No A1) is 7.1.

Molecule `C=C1C[C@@]23CC[C@H]4[C@@](C)(CCC[C@@]4(C)C(=O)O[C@@H]4O[C@H](CO)[C@@H](O)[C@H](O[C@@H]5O[C@H](CO)[C@@H](O)[C@H](O)[C@H]5O)[C@H]4O[C@@H]4O[C@H](CO)[C@@H](O)[C@H](O)[C@H]4O)[C@@H]2CC[C@]1(O[C@@H]1O[C@H](CO)[C@@H](O)[C@H](O[C@@H]2O[C@H](CO)[C@@H](O)[C@H](O)[C@H]2O)[C@H]1O[C@@H]1O[C@H](CO)[C@@H](O)[C@H](O)[C@H]1O)C3` [Reb M, Rebaudioside M, reference compound] registered a sweetness rating (aqueous Reb M (200 ppm), No A1) of 4.7.

Regarding `CC(C)(COc1cccc2c1C(N)=NS(=O)(=O)N2)NC(=O)c1ccncc1` [A1, sodium salt of N-(1-((4-amino-2,2-dioxo-1H-benzo[c][1,2,6]thiadiazin-5-yl)oxy)-2-methyl-propan-2-yl)isonicotinamide], the sweetness rating reads like this: (aqueous Allulose (3.5%) with 4 ppm A1) 3.7; (aqueous Allulose (3.5%) with 8 ppm A1) 4.7; (aqueous Allulose (3.5%) with 12 ppm A1) 4.1; (aqueous Allulose (3.5%) with 16 ppm A1) 5.5; (aqueous D-(+)-Glucose (7%) with 4 ppm A1) 4.5; (aqueous D-(+)-Glucose (7%) with 8 ppm A1) 4.2. The molecule further came in with a sweetness rating (aqueous D-(+)-Glucose (7%) with 12 ppm A1) of 5.2; a sweetness rating (aqueous D-(+)-Glucose (7%) with 16 ppm A1) of 5.7; a sweetness rating (aqueous Erythritol (5%) with 4 ppm A1) of 4.4; a sweetness rating (aqueous Erythritol (5%) with 8 ppm A1) of 4.4; a sweetness rating (aqueous Erythritol (5%) with 12 ppm A1) of 5.7; a sweetness rating (aqueous Erythritol (5%) with 16 ppm A1) of 6.0. The sweetness rating (aqueous Fructose (7%) with 4 ppm A1) came out at 7.1; the sweetness rating (aqueous Fructose (7%) with 8 ppm A1) stood at 7.4; the sweetness rating (aqueous Fructose (7%) with 12 ppm A1) amounted to 8.0; the sweetness rating (aqueous Fructose (7%) with 16 ppm A1) was 8.3; the sweetness rating (aqueous HFCS (7%) with 4 ppm A1) was found to be 5.9; the sweetness rating (aqueous HFCS (7%) with 8 ppm A1) turned out to be 7.2. Also, the sweetness rating (aqueous HFCS (7%) with 12 ppm A1) was found to be 7.4; the sweetness rating (aqueous Reb M (200 ppm) with 4 ppm A1) turned out to be 5.3; the sweetness rating (aqueous Reb M (200 ppm) with 8 ppm A1) worked out at 6.3; the sweetness rating (aqueous Reb M (200 ppm) with 12 ppm A1) came out at 6.1; the sweetness rating (aqueous Reb M (200 ppm) with 16 ppm A1) is reported as 7.3; the sweetness rating (aqueous Sucralose (80 ppm) with 4 ppm A1) was 6.1. The sweetness rating is, setting by setting: (aqueous Sucralose (80 ppm) with 8 ppm A1) 6.6; (aqueous Sucralose (80 ppm) with 12 ppm A1) 7.1; (aqueous Sucralose (80 ppm) with 16 ppm A1) 7.0; (aqueous Sucrose (5%) with 4 ppm A1) 6.4; (aqueous Sucrose (5%) with 8 ppm A1) 7.3; (aqueous Sucrose (5%) with 12 ppm A1) 8.0.

`O=C(CO)C(O)C(O)C(O)CO` (stereo not shown) [Allulose, reference compound] returned a sweetness rating (aqueous Allulose (3.5%), No A1) of 3.0.

In turn, `OC[C@@H](O)[C@@H](O)CO` [Erythritol, reference compound] showed a sweetness rating (aqueous Erythritol (5%), No A1) of 4.0.

With `OC[C@H]1O[C@@](CO)(O[C@H]2O[C@H](CO)[C@@H](O)[C@H](O)[C@H]2O)[C@@H](O)[C@@H]1O` [Sucrose, reference compound], the sweetness rating (aqueous Sucrose (5%), No A1) turned out to be 3.6.
